Publication PMC10114980, “Triple targeting of mutant EGFR^L858R/T790M, COX-2, and 15-LOX: design and synthesis of novel quinazolinone tethered phenyl urea derivatives for anti-inflammatory and anticancer evaluation” (Journal of Enzyme Inhibition and Medicinal Chemistry, 2023)

Assays:
soybean 15-LOX = target: T1, soybean 15-LOX (Glycine max, UniProt P08170); assay: 15-LOX inhibitor screening assay (Cayman); assay type: biochemical; settings: mean ± SEM, n = 3 replicates
T1 sequence (P08170 1-839): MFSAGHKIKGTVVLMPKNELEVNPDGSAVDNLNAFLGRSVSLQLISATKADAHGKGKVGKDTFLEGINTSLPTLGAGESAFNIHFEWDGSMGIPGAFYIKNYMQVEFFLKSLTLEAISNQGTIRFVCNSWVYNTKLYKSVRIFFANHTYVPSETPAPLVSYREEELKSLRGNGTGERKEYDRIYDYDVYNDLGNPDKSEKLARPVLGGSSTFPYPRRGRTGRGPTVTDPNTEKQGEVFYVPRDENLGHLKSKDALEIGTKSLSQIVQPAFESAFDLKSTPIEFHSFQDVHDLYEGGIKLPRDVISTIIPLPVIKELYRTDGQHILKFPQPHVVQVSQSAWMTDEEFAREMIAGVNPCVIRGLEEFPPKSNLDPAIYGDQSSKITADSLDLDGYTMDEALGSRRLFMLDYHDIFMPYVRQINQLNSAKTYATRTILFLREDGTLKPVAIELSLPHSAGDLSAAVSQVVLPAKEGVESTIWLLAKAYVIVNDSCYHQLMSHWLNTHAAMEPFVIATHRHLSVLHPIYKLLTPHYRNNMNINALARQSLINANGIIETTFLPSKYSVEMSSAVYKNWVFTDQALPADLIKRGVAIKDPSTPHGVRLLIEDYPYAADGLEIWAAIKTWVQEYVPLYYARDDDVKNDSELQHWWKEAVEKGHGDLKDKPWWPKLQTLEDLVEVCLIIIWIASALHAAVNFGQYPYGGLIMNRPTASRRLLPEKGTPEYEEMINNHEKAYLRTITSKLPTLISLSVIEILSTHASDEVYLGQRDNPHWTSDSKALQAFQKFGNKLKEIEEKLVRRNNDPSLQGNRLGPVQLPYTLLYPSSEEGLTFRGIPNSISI

[1] = tested on: LPS-induced ROS production in RAW 264.7 cells; assay: ROS production in LPS-activated RAW 264.7 macrophage cells (DCFH-DA); assay type: cell-based; settings: Mus musculus, RAW264.7; LPS-activated RAW 264.7 cells; mean ± SEM, three replicates
Method: (§1) TNF-α and IL-6 production were detected in RAW 264.7 macrophage cell culture supernatants following the induction of inflammation by LPS. Moreover, the probes of oxidative species 2,7-dichlorofluorescein diacetate (DCFH-DA) (Molecular Probes) and NO, 4-amino-5-methylamino-2,7-difluorofluorescein diacetate (DAF-FM diacetate) (Molecular Probes) were used to investigate the antioxidant and NO production inhibitory potential of the test compounds. Briefly, RAW 264.7 cells were cultured in black 96 well plates (200 000 cells/mL, 100 µl/well) for 24 h followed by the incubation with the individual test compounds or the reference drugs at different concentrations (12.5, 25, 50, and 100 µM) for 2 h at 37 °C. LPS was then added at a final concentration of 1 µg/mL for an additional 18 h. The cell culture supernatant was collected from cells treated with the different compounds at 25 µM to measure TNF-α and IL-6 levels (1:10 dilution) using DuoSet ELISA kits (R&D Systems, Minneapolis, MN) following the manufacturer’s instructions. Then, the plates were washed to perform ROS and NO detection assays as detailed in our previous studies[16]^,[27].

[2] = tested on: LPS-induced NO production in RAW 264.7 cells; assay: NO production in LPS-activated RAW 264.7 macrophage cells (DAF-FM diacetate); assay type: cell-based; settings: Mus musculus, RAW264.7; LPS-activated RAW 264.7 cells; mean ± SEM, three replicates
Method: as §1

EKVX = assay: NCI single dose screen, EKVX; assay type: cell-based; settings: Homo sapiens, non-small cell lung cancer, single dose 10^−5 M, read-out: growth inhibition percentage
Method: (§2) Screening of the anticancer activity of the newly synthesised compounds (6a, 6c, 6d, 6e, 6j, 6l, 6m, 6n, 6o, and 6p) was performed by the US National Cancer Institute (NCI) using 60 different human tumour cell lines in accordance with standard procedures formerly reported.
(§3) In vitro anticancer screening was carried out for the selected compounds at a single dose (10^−5 M) against 60 different human tumour cell lines of nine different cancer cell types: leukaemia, lung, colon, CNS, melanoma, ovarian, renal, prostate, and breast cancers.

HOP-62 = assay: NCI single dose screen, HOP-62; assay type: cell-based; settings: Homo sapiens; HOP-62, non-small cell lung cancer; single dose 10^−5 M; read-out: growth inhibition percentage
Method: as §2, §3

NCI-H322M = assay: NCI single dose screen, NCI-H322M; assay type: cell-based; settings: Homo sapiens, non-small cell lung cancer, single dose 10^−5 M, read-out: growth inhibition percentage
Method: as §2, §3

NCI-H460 = assay: NCI single dose screen, NCI-H460; assay type: cell-based; settings: Homo sapiens; NCI-H460, non-small cell lung cancer; single dose 10^−5 M; read-out: growth inhibition percentage
Method: as §2, §3

COLO 205 = assay: NCI single dose screen, COLO 205; assay type: cell-based; settings: Homo sapiens; COLO 205, colon cancer; single dose 10^−5 M; read-out: growth inhibition percentage
Method: as §2, §3

SF-268 = assay: NCI single dose screen, SF-268; assay type: cell-based; settings: Homo sapiens; SF-268, CNS cancer; single dose 10^−5 M; read-out: growth inhibition percentage
Method: as §2, §3

SF-539 = assay: NCI single dose screen, SF-539; assay type: cell-based; settings: Homo sapiens, read-out: growth inhibition percentage
Method: as §2, §3

MDA-MB-435 = assay: NCI single dose screen, MDA-MB-435; assay type: cell-based; settings: Homo sapiens; MDA-MB-435, melanoma; single dose 10^−5 M; read-out: growth inhibition percentage
Method: as §2, §3

UACC-62 = assay: NCI single dose screen, UACC-62; assay type: cell-based; settings: Homo sapiens; UACC-62, melanoma; single dose 10^−5 M; read-out: growth inhibition percentage
Method: as §2, §3

IGROV1 = assay: NCI single dose screen, IGROV1; assay type: cell-based; settings: Homo sapiens, IGROV-1; IGROV1, ovarian cancer; single dose 10^−5 M; read-out: growth inhibition percentage
Method: as §2, §3

OVCAR-8 = assay: NCI single dose screen, OVCAR-8; assay type: cell-based; settings: Homo sapiens; OVCAR-8, ovarian cancer; single dose 10^−5 M; read-out: growth inhibition percentage
Method: as §2, §3

SN12C = assay: NCI single dose screen, SN12C; assay type: cell-based; settings: Homo sapiens, renal cancer, single dose 10^−5 M, read-out: growth inhibition percentage
Method: as §2, §3

PC-3 = assay: NCI single dose screen, PC-3; assay type: cell-based; settings: Homo sapiens; PC-3, prostate cancer; single dose 10^−5 M; read-out: growth inhibition percentage
Method: as §2, §3

MDA-MB-468 = assay: NCI single dose screen, MDA-MB-468; assay type: cell-based; settings: Homo sapiens; MDA-MB-468, breast cancer; single dose 10^−5 M; read-out: growth inhibition percentage
Method: as §2, §3

Structure (SMILES) | IC50 (soybean 15-LOX) [µM] | IC50 [1] [µM] | IC50 [2] [µM] | inhibition at 10 µM (EKVX) [%] | inhibition at 10 µM (HOP-62) [%] | inhibition at 10 µM (NCI-H322M) [%] | inhibition at 10 µM (NCI-H460) [%] | inhibition at 10 µM (COLO 205) [%] | inhibition at 10 µM (SF-268) [%] | inhibition at 10 µM (SF-539) [%] | inhibition at 10 µM (MDA-MB-435) [%] | inhibition at 10 µM (UACC-62) [%] | inhibition at 10 µM (IGROV1) [%] | inhibition at 10 µM (OVCAR-8) [%] | inhibition at 10 µM (SN12C) [%] | inhibition at 10 µM (PC-3) [%] | inhibition at 10 µM (MDA-MB-468) [%] | melting point [°C]
CC1N(NC(=O)Nc2ccc(F)cc2)C(=O)c2ccccc2N1C (stereo not drawn) [Compound 6l, 1–(1,2-Dimethyl-4-oxo-1,4-dihydroquinazolin-3(2H)-yl)-3-(4-fluorophenyl)urea] | 1.58 ± 0.28 | 37.9 ± 1 | 5.24 ± 0.5 | < 10 | < 10 | < 10 | < 10 | < 10 | < 10 | < 10 | < 10 | < 10 | < 10 | < 10 | < 10 | < 10 | < 10 | 187 to 190
COc1ccc(C2N(NC(=O)Nc3ccc(F)cc3)C(=O)c3ccccc3N2C)cc1 (stereo not drawn) [Compound 6p, 1-(4-Fluorophenyl)-3-(2–(4-methoxyphenyl)-1-methyl-4-oxo-1,4-dihydroquinazolin-3(2H)-yl)urea] | 3.87 ± 2.1 | 38.6 ± 1.33 | 10.84 ± 0.05 | < 10 | < 10 | < 10 | < 10 | < 10 | < 10 | < 10 | 10.7 | < 10 | < 10 | < 10 | < 10 | 15.2 | < 10 | 224 to 226
CN1CN(NC(=O)Nc2ccccc2)C(=O)c2ccccc21 [Compound 6a, 1-(1-Methyl-4-oxo-1,4-dihydroquinazolin-3(2H)-yl)-3-phenylurea] | 1.48 ± 0.27 | 35.7 ± 1.08 | 0.97 ± 1.67 | < 10 | < 10 | < 10 | < 10 | < 10 | < 10 | < 10 | < 10 | < 10 | < 10 | < 10 | < 10 | < 10 | < 10 | 240 to 241
CN1c2ccccc2C(=O)N(NC(=O)Nc2ccccc2)C1c1ccc(F)cc1 (stereo not drawn) [Compound 6d, 1-(2-(4-Fluorophenyl)-1-methyl-4-oxo-1,4-dihydroquinazolin-3(2H)-yl)-3-phenylurea] | 1.96 ± 0.23 | 37 ± 1 | 4.12 ± 0.65 | < 10 | < 10 | < 10 | < 10 | < 10 | < 10 | < 10 | < 10 | 15.1 | < 10 | < 10 | < 10 | 18.6 | < 10 | 230 to 232
CN1c2ccccc2C(=O)N(NC(=O)Nc2ccc(F)cc2)C1c1ccc([N+](=O)[O-])cc1 (stereo not drawn) [Compound 6o, 1-(4-Fluorophenyl)-3–(1-methyl-2-(4-nitrophenyl)-4-oxo-1,4-dihydroquinazolin-3(2H)-yl)urea] | 1.42 ± 0.23 | 23.4 ± 1.13 | 1.97 ± 1.45 | 19.8 | < 10 | < 10 | < 10 | < 10 | < 10 | < 10 | 19.9 | 27.4 | < 10 | < 10 | < 10 | 31 | < 10 | 250 to 252
